Read-outs that look alike come from different tables or passages of the source.
Assays:
ATM kinase = ATM kinase (Homo sapiens, UniProt Q13315); assay: Inhibitory activity against ATM kinase (p53 substrate, HTRF); type: biochemical
Method: (§1) ATM kinase solution (concentration: 25 ng/μL) was added to assay wells at 6 μL/well, and different compounds dissolved in DMSO were added to the assay wells separately using a nanoliter pipettor, such that the final concentrations of the compounds were 10000 nM to 2.44 nM. In this experiment, the wells were set in duplicate, and a control well was set. After incubation of the above system for 30 min at room temperature, ATP (100 μM) was mixed with p53 substrate (50 nM) at a ratio of 1:1, and the mixture was added at 4 μL/well. The resulting mixture was left to react at room temperature for 2 h, and then 5 μL of EDTA was added to terminate the reaction, followed by addition of 5 μL of detection antibodies, Mab Anti-phospho p53 and Mab Anti GST-d2 (manufacturer: perkinelmer). The mixture was incubated at room temperature for 1 h. The plate was read using a PerkinElmer Envision multifunctional microplate reader (excitation: 320 nm, emission: 620 nm/665 nm), and IC50 was calculated by four-parameter fitting.

[1] = molecular target: DNA-PK (DNA-dependent protein kinase) (Homo sapiens, UniProt P78527); assay: Inhibitory activity against DNA-PK (p53 substrate, HTRF); type: biochemical
Method: as §1, with “DNA-PK” for “ATM”, “0.15” for “25”

[2] = test system: CHK2 phosphorylation of NCI-H2228 cells; assay: Inhibitory activity against CHK2 phosphorylation of NCI-H2228 cells (p-CHK2 Thr68 AlphaLISA); type: cell-based; conditions: Homo sapiens
Method: NCI-H2228 cells in a good growth state were collected, added to a centrifuge tube, adjusted to a cell density of 1.25×10^6 cells/mL, and seeded in a 384-well plate (8 μL/well). The cells were equilibrated in a cell incubator for 1.5 h, and then compounds were added using a nanoliter pipettor, such that the final concentrations of the compounds were 200 nM to 0.049 nM. In this experiment, the wells were set in duplicate, and a control well was set. After the mixture was further cultured for 1 h in the cell incubator, an assay was performed using a p-CHK2 (Thr68) assay kit (manufacturer: perkinelmer) and the Envision microplate reader AlphaLISA program. A four-parameter analysis was performed, a dose-response curve was fit, and IC50 was calculated.

[3] = molecular target: ATR/ATPIP (ATR-interacting protein) kinase (Homo sapiens, UniProt Q13535); assay: Inhibitory activity against ATR kinase (p53 substrate, HTRF); type: biochemical
Sequence of ATR/ATPIP (ATR-interacting protein) kinase (Q13535 whole entry): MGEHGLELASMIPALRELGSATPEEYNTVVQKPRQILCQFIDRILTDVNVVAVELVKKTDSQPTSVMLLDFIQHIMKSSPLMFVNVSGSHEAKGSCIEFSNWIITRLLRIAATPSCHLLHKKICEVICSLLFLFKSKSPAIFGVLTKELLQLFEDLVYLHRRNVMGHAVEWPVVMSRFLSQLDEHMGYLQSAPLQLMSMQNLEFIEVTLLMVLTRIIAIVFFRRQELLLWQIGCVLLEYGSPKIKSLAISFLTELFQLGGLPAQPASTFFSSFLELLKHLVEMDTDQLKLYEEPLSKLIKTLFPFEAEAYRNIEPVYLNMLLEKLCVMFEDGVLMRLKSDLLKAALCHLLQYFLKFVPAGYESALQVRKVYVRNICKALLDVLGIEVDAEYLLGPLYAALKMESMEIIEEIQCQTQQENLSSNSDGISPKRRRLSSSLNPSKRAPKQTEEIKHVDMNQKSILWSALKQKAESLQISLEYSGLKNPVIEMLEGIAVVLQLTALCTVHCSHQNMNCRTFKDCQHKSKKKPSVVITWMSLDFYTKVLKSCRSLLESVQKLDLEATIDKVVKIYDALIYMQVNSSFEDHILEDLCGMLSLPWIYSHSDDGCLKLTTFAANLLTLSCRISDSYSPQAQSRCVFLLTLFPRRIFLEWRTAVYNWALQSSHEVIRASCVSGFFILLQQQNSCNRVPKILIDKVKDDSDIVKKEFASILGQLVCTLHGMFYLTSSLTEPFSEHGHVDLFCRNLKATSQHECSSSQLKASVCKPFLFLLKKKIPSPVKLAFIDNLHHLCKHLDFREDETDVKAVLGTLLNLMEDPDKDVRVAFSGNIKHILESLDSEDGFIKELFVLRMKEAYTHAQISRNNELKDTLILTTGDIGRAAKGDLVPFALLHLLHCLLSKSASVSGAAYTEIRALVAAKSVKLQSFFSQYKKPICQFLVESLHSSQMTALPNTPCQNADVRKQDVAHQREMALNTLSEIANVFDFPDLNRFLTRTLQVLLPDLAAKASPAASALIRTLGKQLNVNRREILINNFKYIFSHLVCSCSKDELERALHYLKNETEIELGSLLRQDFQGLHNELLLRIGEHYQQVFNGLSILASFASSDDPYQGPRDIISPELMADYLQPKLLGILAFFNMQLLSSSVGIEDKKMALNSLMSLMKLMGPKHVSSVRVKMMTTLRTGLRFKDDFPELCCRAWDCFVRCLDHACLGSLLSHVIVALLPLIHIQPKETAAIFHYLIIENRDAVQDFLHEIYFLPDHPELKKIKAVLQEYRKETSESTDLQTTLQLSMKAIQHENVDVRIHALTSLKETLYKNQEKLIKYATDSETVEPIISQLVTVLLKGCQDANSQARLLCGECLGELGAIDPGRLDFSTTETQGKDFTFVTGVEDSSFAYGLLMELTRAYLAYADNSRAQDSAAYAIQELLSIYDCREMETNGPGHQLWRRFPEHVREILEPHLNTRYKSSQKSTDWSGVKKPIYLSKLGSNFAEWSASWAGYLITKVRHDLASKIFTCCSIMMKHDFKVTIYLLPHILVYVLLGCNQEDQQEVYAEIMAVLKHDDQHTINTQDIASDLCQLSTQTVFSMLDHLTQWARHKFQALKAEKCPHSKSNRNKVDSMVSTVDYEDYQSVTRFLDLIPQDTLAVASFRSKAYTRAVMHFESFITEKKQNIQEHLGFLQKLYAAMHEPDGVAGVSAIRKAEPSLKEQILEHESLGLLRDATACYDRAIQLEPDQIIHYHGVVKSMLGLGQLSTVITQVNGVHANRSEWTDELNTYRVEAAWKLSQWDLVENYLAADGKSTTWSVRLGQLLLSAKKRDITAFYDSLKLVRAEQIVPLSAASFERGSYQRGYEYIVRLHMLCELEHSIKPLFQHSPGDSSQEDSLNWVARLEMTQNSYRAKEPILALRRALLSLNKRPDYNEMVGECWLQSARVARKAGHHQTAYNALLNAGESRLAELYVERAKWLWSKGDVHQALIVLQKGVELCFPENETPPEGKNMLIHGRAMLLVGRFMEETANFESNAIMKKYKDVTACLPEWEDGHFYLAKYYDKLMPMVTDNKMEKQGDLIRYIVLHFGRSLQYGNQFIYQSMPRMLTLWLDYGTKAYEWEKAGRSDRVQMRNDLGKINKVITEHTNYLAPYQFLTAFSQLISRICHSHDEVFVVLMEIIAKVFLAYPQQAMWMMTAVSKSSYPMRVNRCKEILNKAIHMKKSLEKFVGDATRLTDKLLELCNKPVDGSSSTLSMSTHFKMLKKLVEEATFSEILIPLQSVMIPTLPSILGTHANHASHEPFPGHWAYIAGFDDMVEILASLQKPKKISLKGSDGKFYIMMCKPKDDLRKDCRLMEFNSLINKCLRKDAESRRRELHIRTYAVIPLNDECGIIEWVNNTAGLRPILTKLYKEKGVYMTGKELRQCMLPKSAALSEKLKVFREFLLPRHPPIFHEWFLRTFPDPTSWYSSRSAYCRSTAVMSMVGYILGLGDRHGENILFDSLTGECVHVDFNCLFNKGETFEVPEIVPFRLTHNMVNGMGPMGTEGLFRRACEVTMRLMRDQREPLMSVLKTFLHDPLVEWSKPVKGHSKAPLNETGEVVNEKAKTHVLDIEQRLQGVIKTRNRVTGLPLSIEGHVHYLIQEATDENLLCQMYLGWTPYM
Sequence of ATR/ATPIP (ATR-interacting protein) kinase (Q8WXE1 whole entry partner): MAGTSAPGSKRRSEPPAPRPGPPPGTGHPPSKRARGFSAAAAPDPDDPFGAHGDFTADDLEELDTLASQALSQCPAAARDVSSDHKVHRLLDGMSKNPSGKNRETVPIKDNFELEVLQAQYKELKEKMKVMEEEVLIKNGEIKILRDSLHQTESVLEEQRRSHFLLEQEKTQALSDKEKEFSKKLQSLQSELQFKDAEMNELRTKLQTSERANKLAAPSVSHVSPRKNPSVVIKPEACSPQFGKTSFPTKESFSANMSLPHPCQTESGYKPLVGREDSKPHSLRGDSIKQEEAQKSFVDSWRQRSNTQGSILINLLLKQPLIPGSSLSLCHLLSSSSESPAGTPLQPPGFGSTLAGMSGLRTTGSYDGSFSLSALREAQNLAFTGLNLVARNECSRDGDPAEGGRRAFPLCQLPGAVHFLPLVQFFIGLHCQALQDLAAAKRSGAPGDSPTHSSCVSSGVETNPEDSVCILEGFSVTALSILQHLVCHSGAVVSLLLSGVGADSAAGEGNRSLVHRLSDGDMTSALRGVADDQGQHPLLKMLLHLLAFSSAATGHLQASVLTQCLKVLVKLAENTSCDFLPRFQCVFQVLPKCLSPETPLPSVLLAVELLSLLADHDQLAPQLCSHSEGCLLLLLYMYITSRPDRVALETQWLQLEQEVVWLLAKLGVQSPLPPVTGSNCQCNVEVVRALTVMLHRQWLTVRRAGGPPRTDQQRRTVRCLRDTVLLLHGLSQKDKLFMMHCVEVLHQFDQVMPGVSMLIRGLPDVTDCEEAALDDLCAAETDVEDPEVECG
Method: as §1, with “ATR/ATPIP (ATR-interacting protein)” for “ATM”, “50” for “25”, “(5” for “(100”

[4] = In vivo pharmacokinetics (Table 4); conditions: for AUC(0-inf) / AUC(0-t) / half-life / MRT last / Vd / Cmax / Tmax: plasma; for MRT last: read-out: MRT(0-t); for Vd: read-out: Vz

SMILES	IC50 (ATM kinase) [nM]	IC50 [1] [nM]	IC50 [2] [nM]	IC50 [3] [nM]	further results
Nn1c(=O)n(C2CCOCC2)c2c3cc(-c4ccc(OCCCN5CCCC5)nc4)c(F)cc3ncc21 [Example 5]	< 50	> 1000	< 50	> 1000	
CC(C)n1c(=O)n(N)c2cnc3cc(F)c(-c4ccc(OCCCN5CC(F)(F)C5)nc4)cc3c21 [Example 24]	< 50	> 1000	< 50		
Nn1c(=O)n(C2CCOCC2)c2c3cc(-c4ccc(OCCCN(C5CC5)C5CC5)nc4)c(F)cc3ncc21 [Example 6]	< 50	> 1000		> 1000	
CNn1c(=O)n(C(C)C)c2c3cc(-c4ccc(OCCCN5CCCCC5)nc4)c(F)cc3nnc21 [Example 33]	< 50	> 10000		> 10000	
[2H]C([2H])([2H])Nn1c(=O)n(C(C)C)c2c3cc(-c4ccc(OCCCN5CCCCC5)nc4)c(F)cc3ncc21 [Example 8]	< 50	> 1000		> 1000	
CNn1c(=O)n(C(C)C)c2c3cc(-c4ccc(OCCCN5CCCCC5)nc4)c(F)cc3ncc21 [Example 7]	< 50	> 1000	< 50	> 1000	
Nn1c(=O)n(C2CC2)c2c3cc(-c4ccc(OCCCN5CCCCC5)nc4)c(F)cc3nnc21 [Example 36]	< 50	> 10000		> 10000	
COC1CC(n2c(=O)n(N)c3cnc4cc(F)c(-c5ccc(OCCCN(C)C)nc5)cc4c32)C1 (stereo not drawn) [Example 21]	< 50	> 1000	< 50	> 1000	
COc1cc2ncc3c(c2cc1-c1ccc(OCCCN2CCCC2)nc1)n(C(C)C)c(=O)n3N [Example 17]	< 50	> 1000	< 50	> 1000	
COc1cc2ncc3c(c2cc1-c1ccc(OCCCN2CCCC2)nc1)n(C1CC1)c(=O)n3N [Example 11]	< 50	> 1000	< 50	> 1000	
COc1cc2ncc3c(c2cc1-c1ccc(OCCCN2CCCCC2)nc1)n(-c1c(F)cncc1OC)c(=O)n3N [Example 30]	< 50	> 10000		8090	
COC1CCC(n2c(=O)n(N)c3cnc4cc(F)c(-c5ccc(OCCCN6CCCCC6)nc5)cc4c32)C1 (stereo not drawn) [Example 12]	< 50	> 1000		> 1000	
COc1cc2ncc3c(c2cc1-c1ccc(OCCCN2CCCCC2)nc1)n(C(C)C)c(=O)n3N [Example 16]	< 50	> 1000		> 1000	
CC(C)n1c(=O)n(N)c2nnc3cc(F)c(-c4ccc(OCCCN5CCCCC5)nc4)cc3c21 [Example 32]			< 50		
COC1CCC(n2c(=O)n(N)c3cnc4cc(F)c(-c5ccc(OCCCN6CCCC6)nc5)cc4c32)C1 (stereo not drawn) [Example 13]	< 50	> 1000	< 50	> 1000	
COC1CCC(n2c(=O)n(N)c3cnc4cc(F)c(-c5ccc(OCCCN(C)C)nc5)cc4c32)C1 (stereo not drawn) [Example 14]	< 50	> 1000	< 50	> 1000	

SMILES	IC50 (ATM kinase) [nM]	IC50 [1] [nM]	IC50 [2] [nM]	IC50 [3] [nM]	further results
CC(C)n1c(=O)n(N)c2cnc3cc(F)c(-c4ccc(OCCCN5CC(F)C5)nc4)cc3c21 [Example 23]	< 50	> 1000	< 50		
CC(C)n1c(=O)n(N)c2cnc3cc(F)c(-c4ccc(OCCCN5CC6(CCC6)C5)nc4)cc3c21 [Example 29]	< 50	> 1000	< 50		AUC(0-inf) ([4]; iv, 1 mg/kg): 3160 ng·h/mL; AUC(0-t) ([4]; iv, 1 mg/kg): 3140 ng·h/mL; half-life ([4]; iv, 1 mg/kg): 3.22 h; MRT last ([4]; iv, 1 mg/kg): 3.29 h; Vd ([4]; iv, 1 mg/kg): 1.09 L/kg; AUC(0-inf) ([4]; po, IG, 10 mg/kg): 27300 ng·h/mL; AUC(0-t) ([4]; po, IG, 10 mg/kg): 27000 ng·h/mL; Cmax ([4]; po, IG, 10 mg/kg): 2300 ng/mL; Tmax ([4]; po, IG, 10 mg/kg): 4 h; half-life ([4]; po, IG, 10 mg/kg): 3.51 h; MRT last ([4]; po, IG, 10 mg/kg): 5.99 h
CC(C)n1c(=O)n(N)c2cnc3cc(F)c(-c4ccc(OCCCN5CCC(F)(F)C5)nc4)cc3c21 [Example 26]	< 50	> 1000	< 50		
CC(C)n1c(=O)n(N)c2cnc3cc(F)c(-c4ccc(OCCCN5CC(CF)C5)nc4)cc3c21 [Example 28]	< 50	> 1000	< 50		AUC(0-inf) ([4]; iv, 1 mg/kg): 2240 ng·h/mL; AUC(0-t) ([4]; iv, 1 mg/kg): 2230 ng·h/mL; half-life ([4]; iv, 1 mg/kg): 3.1 h; MRT last ([4]; iv, 1 mg/kg): 3.24 h; Vd ([4]; iv, 1 mg/kg): 1.5 L/kg; AUC(0-inf) ([4]; po, IG, 10 mg/kg): 17300 ng·h/mL; AUC(0-t) ([4]; po, IG, 10 mg/kg): 17200 ng·h/mL; Cmax ([4]; po, IG, 10 mg/kg): 1630 ng/mL; Tmax ([4]; po, IG, 10 mg/kg): 4 h; half-life ([4]; po, IG, 10 mg/kg): 3.04 h; MRT last ([4]; po, IG, 10 mg/kg): 5.56 h
CC(C)n1c(=O)n(N)c2cnc3cc(F)c(-c4ccc(OCC5CC(N6CCCC6)C5)nc4)cc3c21 (stereo not drawn) [Example 22]	< 50	> 1000	< 50		
CC(C)n1c(=O)n(N)c2nnc3cc(F)c(-c4ccc(OCCCN5CCCC5)nc4)cc3c21 [Example 34]	< 50	> 10000		> 10000	
COc1cc2ncc3c(c2cc1-c1ccc(OCCCN2CCCCC2)nc1)n(C1CC1)c(=O)n3N [Example 10]	< 50	> 1000		> 1000	
Nn1c(=O)n(C2CC2)c2c3cc(-c4ccc(OCCCN5CCCC5)nc4)c(F)cc3nnc21 [Example 37]	< 50	> 10000		> 10000	
CC(C)n1c(=O)n(N)c2cnc3cc(F)c(-c4ccc(OCCCN5CCC(CF)C5)nc4)cc3c21 (stereo not drawn) [Example 25]	< 50	> 1000	< 50		
Nn1c(=O)n(C2CCOCC2)c2c3cc(-c4ccc(OCCCN5CCCCC5)nc4)c(F)cc3ncc21 [Example 15]	< 50	> 1000		> 1000	
CC(C)n1c(=O)n(N)c2cnc3cc(F)c(-c4ccc(OCCCN5C6CCC5CC6)nc4)cc3c21 [Example 27]	< 50	> 1000	< 50		Absolute F ([4]; IG 10 mg/kg vs IV 1 mg/kg): 115.39%; CLz ([4]; IV, 1 mg/kg): 59.7 mL/min/kg; AUC(0-inf) ([4]; iv, 1 mg/kg): 280 ng·h/mL; AUC(0-t) ([4]; iv, 1 mg/kg): 271 ng·h/mL; half-life ([4]; iv, 1 mg/kg): 1.87 h; MRT last ([4]; iv, 1 mg/kg): 1.43 h; Vd ([4]; iv, 1 mg/kg): 6.11 L/kg; AUC(0-inf) ([4]; po, IG, 10 mg/kg): 3190 ng·h/mL; AUC(0-t) ([4]; po, IG, 10 mg/kg): 3130 ng·h/mL; Cmax ([4]; po, IG, 10 mg/kg): 342 ng/mL; Tmax ([4]; po, IG, 10 mg/kg): 2 h; half-life ([4]; po, IG, 10 mg/kg): 4.12 h; MRT last ([4]; po, IG, 10 mg/kg): 5.7 h
COC1CC(n2c(=O)n(N)c3cnc4cc(F)c(-c5ccc(OCCCN6CCCCC6)nc5)cc4c32)C1 (stereo not drawn) [Example 20]	< 50	> 1000	< 50	> 1000	
CC(C)n1c(=O)n(N)c2cnc3ccc(-c4ccc(OCCCN5CCCCC5)nc4)cc3c21 [Example 1]	< 50	> 1000		289	
CNn1c(=O)n(C(C)C)c2c3cc(-c4ccc(OCCCN5CCCC5)nc4)c(F)cc3nnc21 [Example 35]	< 50	> 10000		> 10000	
CC(C)n1c(=O)n(N)c2cnc3cc(F)c(-c4ccc(OCCCN(C5CC5)C5CC5)nc4)cc3c21 [Example 4]	< 50	> 1000		> 1000	
COc1cc2ncc3c(c2cc1-c1ccc(OCCCN2CCCC2)nc1)n(-c1c(F)cncc1OC)c(=O)n3N [Example 31]	< 50	> 10000	< 50	8720	

From patent US20260250277A1, “HYDRAZINO GROUP-CONTAINING COMPOUND” (CHIA TAI TIANQING PHARMACEUTICAL GROUP CO., LTD., priority 2022, published 2026)
